Where two headings read alike, the source gives them in different places.
Tests used:
[1] = tested on: BT-474 cells; assay: Combination of poziotinib with other anticancer drugs, synergy on proliferation; type: cell-based; conditions: HER2-overexpressed, ER-negative breast cancer cells
[2] = tested on: MBA-MB-453 cells; assay: as above; type: cell-based; conditions: HER2 overexpressed trastuzumab resistant breast cancer cells; concentrations equal to or lower than the GI50 of poziotinib alone
[3] = tested on: HER2-positive GC; conditions: monotherapy; cited from earlier work
[4] = tested on: NSCLC patients having EGFR activating mutations; conditions: in vivo; cited from earlier work
[5] = tested on: HER2-amplified GC cells; conditions: in vitro; cited from earlier work
[6] = tested on: patients with HER2-positive GC; assay: Phase I/II study of poziotinib combined with paclitaxel and trastuzumab: safety (TEAEs, DLT, MTD, dose adjustments); type: in vivo; conditions: for MTD of poziotinib: combined with paclitaxel and trastuzumab
Experimental: (§1) A prospective phase I/II study was conducted at 11 treatment centers in Korea. Patients with HER2-positive GC who previously had received one or more lines of chemotherapy were enrolled. Enrolled patients received oral poziotinib (8 mg or 12 mg) once daily for 14 days, followed by 7 days off.
(§2) Patients. […] Key exclusion criteria included: a history of hypersensitivity to drugs containing Cremophor® EL and trastuzumab; previous exposure to taxanes, and symptomatic central nervous system metastasis.
(§3) Treatment Procedures. […] DLTs were evaluated in 6 patients at each poziotinib dose level.
(§4) Safety Analyses and Efficacy. Adverse events (AEs) and TEAEs were evaluated using National Cancer Institute-Common Terminology Criteria for Adverse Events (version 4.03). DLTs were defined as grade […] non-hematologic toxicities (except for alopecia); grade ≥3 diarrhea, nausea and vomiting, despite maximal dosage of anti-diarrhea and/or anti-emetic medication (as applicable); and grade 4 neutropenia sustained for ≥7 days, grade 3-4 neutropenia with fever or infection, grade 4 thrombocytopenia and grade 3 thrombocytopenia sustained for 7 days, or with accompanying bleeding, or requiring transfusion. Left ventricular ejection fraction (LVEF) assessment was performed at baseline, on day 1 of the first 3 cycles and every 3 cycles thereafter. All patients who received at least one dose of poziotinib were included in the safety analysis. Tumor response was evaluated by CT or MRI of the thorax, abdomen and pelvis every 6 weeks using RECIST version 1.1, according to investigator assessment.
(§5) Statistical Analysis. The primary objective of phase I was to assess the safety and tolerability of poziotinib and to determine the MTD of poziotinib when combined with paclitaxel and trastuzumab. The primary objective of the phase II part was to assess the objective response rate (ORR) of poziotinib combined with paclitaxel and trastuzumab. The secondary objectives were to evaluate the safety and tolerability, progression-free survival (PFS), time to tumor progression (TTP) and duration of overall response (DOR).

[7] = tested on: patients with HER2-positive GC; assay: Phase I/II study of poziotinib combined with paclitaxel and trastuzumab: efficacy (tumor response RECIST 1.1, survival); type: in vivo, human
Experimental: as §1, §2, §3, §4, §5
For phase II, it was hypothesized that an ORR <5% would be ineffective and an ORR >20% would be considered to be clinically significant. Sample size was calculated using Simon's 2-stage minimax design, with 80% power and a significance level of 5%. Of the total 27 target subjects, 13 were required in the 1st stage. If the tumor response was 0 out of 13 patients, the study was planned to be terminated early. However, if at least 1 response was observed, an additional 14 patients would be enrolled in the study.

[8] = cited from earlier work; for ORR / median PFS: monotherapy
[9] = tested on: SK-BR-3 cells; assay: Combination of poziotinib with other anticancer drugs, synergy on proliferation; type: cell-based; conditions: HER2-overexpressed and ER-negative
[10] = tested on: MDA-MB-361 cells; assay: as above; type: cell-based; conditions: HER2-overexpressed, ER-positive, trastuzumab resistant
[11] = tested on: MCF-7 cells; assay: as above; type: cell-based; conditions: not HER1 and HER2-overexpressed and ER-positive
[12] = tested on: MDA-MB-468 cells; assay: as above; type: cell-based; conditions: HER2 negative, ER-negative, HER1-overexpressed triple negative breast cancer cells
[13] = tested on: HER2-positive breast cancer; conditions: in combination with docetaxel plus trastuzumab; cited from earlier work
[14] = tested on: HER2-positive GC; conditions: in combination with chemotherapy; cited from earlier work
[15] = tested on: patients with HER2-positive GC; conditions: patients who failed prior fluoropyrimidine and platinum, cited from earlier work
[16] = All patients, Phase I 12 mg (5)
[17] = All patients, Phase I Total (12)
[18] = All patients, Phase II RD: 8 mg (32)
[19] = All patients, Total population Total (44)
[20] = Trastuzumab-naïve patients, Phase I 8 mg (n 3)
[21] = Trastuzumab-naïve patients, Phase I Total (n 3)
[22] = Trastuzumab-naïve patients, Phase II RD: 8 mg (n 8)
[23] = Trastuzumab-naïve patients, Total population (n 11)
[24] = Trastuzumab-pretreated Patients, Phase I 8 mg (n 4)
[25] = Trastuzumab-pretreated Patients, Phase I 12 mg (n 5)
[26] = Trastuzumab-pretreated Patients, Phase I Total (n 9)
[27] = Trastuzumab-pretreated Patients, Phase II RD: 8 mg (n 24)
[28] = Trastuzumab-pretreated Patients, Total population (n 33)

Compound: O=c1[nH]cc(F)c(=O)[nH]1 [5-FU, 5-fluorouracil]
- synergistic effect when combined with poziotinib [1]: high synergistic effect
- synergistic effect when combined with poziotinib [2]: excellent synergistic effect

Compound: N.N.[Cl][Pt][Cl] [cisplatin]
- synergistic effect when combined with poziotinib [1]: high synergistic effect
- synergistic effect when combined with poziotinib [2]: excellent synergistic effect

Compound: COc1cc2ncnc(Nc3ccc(F)c(Cl)c3)c2cc1NC(=O)/C=C/CN1CCCCC1 [dacomitinib]
- ORR [3]: 7.4%
- median PFS [3]: 2.1 months

Compound: C#Cc1cccc(Nc2ncnc3cc(OCCOC)c(OCCOC)cc23)c1 [erlotinib]
- Patients observed to be resistant due to the EGFR T790M mutation [4]: about 60%

Compound: CS(=O)(=O)CCNCc1ccc(-c2ccc3ncnc(Nc4ccc(OCc5cccc(F)c5)c(Cl)c4)c3c2)o1 [lapatinib]
- anti-tumor activity of dual blockade with trastuzumab [5]: highly synergistic anti-tumor activity

Compound: CC(=O)O[C@H]1C(=O)[C@@]2(C)[C@H]([C@H](OC(=O)c3ccccc3)[C@]3(O)C[C@H](OC(=O)[C@H](O)[C@@H](NC(=O)c4ccccc4)c4ccccc4)C(C)=C1C3(C)C)[C@]1(OC(C)=O)CO[C@@H]1C[C@@H]2O [paclitaxel]
- synergistic effect when combined with poziotinib [1]: high synergistic effect
- synergistic effect when combined with poziotinib [2]: excellent synergistic effect

Compound: C=CC(=O)N1CCC(Oc2cc3c(Nc4ccc(Cl)c(Cl)c4F)ncnc3cc2OC)CC1 [poziotinib, 1-[4-[4-(3,4-dichloro-2-fluorophenylaminino)-7-methoxyquinazolin-6-yloxy]-piperidin-1-yl]prop-2-en-1-one]
- TEAEs by Maximum Severity: Grade 5 (death) ([6]; Phase I 12 mg (n = 5)): 0 n
- TEAEs leading to death ([6]; Phase I 12 mg (n = 5)): 0 n
- MTD of poziotinib ([6]; Phase I part of the current study): 8 mg/day
- MTD of poziotinib ([6]; Phase I, once daily 14 days, 7 days off): 8 mg
- AE related to poziotinib: Fatigue ([6]; human, in vivo): 0 n
- AE related to poziotinib: Myalgia ([6]; human, in vivo): 0 n
- AE related to poziotinib: Vomiting ([6]; human, in vivo): 0 n
- Left ventricular systolic dysfunction (LVSD) ([6]; human, in vivo): no grade 3 or 4 left ventricular systolic dysfunction
- TEAE ≥Grade 3: Abdominal pain ([6]; human, in vivo): 0 n
- TEAE ≥Grade 3: Mucosal inflammation ([6]; human, in vivo): 0 n
- TEAE ≥Grade 3: Pruritus ([6]; human, in vivo): 0 n
- TEAE ≥Grade 3: Rash ([6]; human, in vivo): 0 n
- TEAE ≥Grade 3: Stomatitis ([6]; human, in vivo): 0 n
- TEAEs by Maximum Severity: Grade 1 (mild) ([6]; human, in vivo): 0 n
- Overall survival, Median ([7]; All patients, Phase I 8 mg (7)): 30.6 weeks
- Progression free survival, Median ([7]; All patients, Phase I 8 mg (7)): 17.1 weeks
- Time to tumor progression, Median ([7]; All patients, Phase I 8 mg (7)): 18.2 weeks
- Overall survival, Median [7, 16]: 19.9 weeks
- Progression free survival, Median [7, 16]: 17.7 weeks
- Time to tumor progression, Median [7, 16]: 17.7 weeks
- Overall survival, Median [7, 17]: 30.6 weeks
- Progression free survival, Median [7, 17]: 17,7 weeks
- Time to tumor progression, Median [7, 17]: 17.9 weeks
- Overall survival, Median [7, 18]: 29.5 weeks
- Progression free survival, Median [7, 18]: 13.0 weeks
- Time to tumor progression, Median [7, 18]: 15.0 weeks
- Overall survival, Median [7, 19]: 29.5 weeks
- Progression free survival, Median [7, 19]: 16.0 weeks
- Time to tumor progression, Median [7, 19]: 17.1 weeks
- Best overall response: CR ([7]; Phase I 8 mg (n = 7)): 0 n
- Duration of overall response, Median ([7]; Phase I 8 mg, 2 patients): 14.5 weeks
- Best overall response: CR ([7]; Phase I 12 mg (n = 5)): 0 n
- Best overall response: unknown ([7]; Phase I 12 mg (n = 5)): 0 n
- Duration of overall response, Median ([7]; Phase I 12 mg, 2 patients): 20.4 weeks
- Duration of overall response, Median ([7]; Phase I Total): 15.0 weeks
- Best overall response: CR ([7]; Phase I Total (n = 12)): 0 n
- Patients with tumor shrinkage ([7]; Phase II): Twenty
- Duration of overall response, Median ([7]; Phase II RD: 8 mg, 7 patients): 26.8 weeks
- Overall survival, Median [7, 20]: 194.9 weeks
- Progression free survival, Median [7, 20]: 30.6 weeks
- Overall survival, Median [7, 21]: 194.9 weeks
- Progression free survival, Median [7, 21]: 30.6 weeks
- Disease control rate [7, 22]: 5 n
- Overall survival, Median [7, 22]: 42.6 weeks
- Progression free survival, Median [7, 22]: 18.7 weeks
- Overall survival, Median [7, 23]: 59.2 weeks
- Progression free survival, Median [7, 23]: 20.7 weeks
- Overall survival, Median [7, 24]: 30.6 weeks
- Progression free survival, Median [7, 24]: 15.5 weeks
- Overall survival, Median [7, 25]: 19.9 weeks
- Progression free survival, Median [7, 25]: 17.7 weeks
- Overall survival, Median [7, 26]: 21.1 weeks
- Progression free survival, Median [7, 26]: 17.7 weeks
- Overall survival, Median [7, 27]: 29.5 weeks
- Progression free survival, Median [7, 27]: 13.0 weeks
- Overall survival, Median [7, 28]: 29.5 weeks
- Progression free survival, Median [7, 28]: 15.0 weeks
- MTD of poziotinib as monotherapy ([8]; continuous dosing): 18 mg/day
- MTD of poziotinib as monotherapy ([8]; intermittent dosing (14 days on and 7 days off)): 24 mg/day
- ORR ([8]; continuous dosing schedule): 21%
- median PFS ([8]; continuous dosing schedule): 9.0 weeks
- ORR ([8]; intermittent dosing schedule): 16%
- median PFS ([8]; intermittent dosing schedule): 12.0 weeks

Compound: CCC1=C[C@@H]2CN(C1)Cc1c([nH]c3ccccc13)[C@@](C(=O)OC)(c1cc3c(cc1OC)N(C)[C@H]1[C@@](O)(C(=O)OC)[C@H](OC(C)=O)[C@]4(CC)C=CCN5CC[C@]31[C@@H]54)C2 [vinorelbine]
- synergistic effect when combined with poziotinib [1]: synergistic effect was not observed
- synergistic effect when combined with poziotinib [9]: sufficient effect was observed to indicate synergy
- synergistic effect when combined with poziotinib [10]: synergistic effect at some concentrations
- synergistic effect when combined with poziotinib [11]: synergy at every concentration
- synergistic effect when combined with poziotinib [12]: synergistic effect was observed

Compound: pertuzumab: anti-HER2 antibody used for dual blockade with trastuzumab
- Effect on OS [13]: significantly increased OS
- Effect on OS [14]: did not extend OS

Compound: trastuzumab emtansine
- ORR [15]: 20.6%
- Efficacy compared with paclitaxel ([15]; phase III): not superior to paclitaxel

Reference: US20210260064A1, “POZIOTINIB COMBINATIONS WITH AN ANTI-HER1, HER2 OR HER4 ANTIBODY AND METHODS OF USE THEREOF” (Spectrum Pharmaceuticals, Inc., priority 2018, published 2021)
